Results taken from the SangsterLogP compilation.

Row | Structure (SMILES) | logP
1 | Cc1cc(Cl)ccc1OCC(=O)O | 2.69
2 | CC(C)Nc1nc(Cl)nc(NC(C)C)n1 | 3.09
3 | COC(=O)C=C(C)OP(=O)(OC)OC | 0.55
4 | Nc1cc(Cl)cc(C(=O)O)c1Cl | 1.46
5 | CCC(C)Nc1c([N+](=O)[O-])cc(C(C)(C)C)cc1[N+](=O)[O-] (centres undefined) | 4.54
6 | CCCN(CC1CC1)c1c([N+](=O)[O-])cc(C(F)(F)F)cc1[N+](=O)[O-] | 5.16
7 | CC(Cl)(Cl)C(=O)O | 1.34
8 | Cc1[nH]c(=O)n(C(C)(C)C)c(=O)c1Cl | 1.44
9 | O=C(O)c1c(Cl)ccc(Cl)c1Cl | 4.34
10 | CC(C)OC(=O)Nc1cccc(Cl)c1 | 3.42
11 | CCCN(CCC)c1c([N+](=O)[O-])cc(S(C)(=O)=O)cc1[N+](=O)[O-] | 4.78
12 | CN(C)C(=O)C(c1ccccc1)c1ccccc1 | 2.17
13 | ClC1=C(Cl)[C@]2(Cl)C3C(Cl)C(Cl)CC3[C@@]1(Cl)C2(Cl)Cl (some centres undefined) | 5.89
14 | CCC(C)n1c(=O)[nH]c(C)c(Br)c1=O (centres undefined) | 1.33
